Data published in US20040203067A1, “Methods for cancer prognosis and screening antiproliferative agents” (Temple University - Of The Commonwealth System of Higher …, priority 1998, published 2004).

Assays:
BT20 cells = test: Killing of BT20 cells determined by Trypan blue exclusion; assay type: cell-based, human; details: 2.5 μM in DMSO, within 72 hours of treatment
phospho-STAT-3 = test: Phospho-STAT-3 immunoassay (Western blot) in BT20 breast cancer cells; assay type: cell-based, human; details: 25 μM
Method: Human breast carcinoma cell lines, BT20, 126, T47D, MCF-7, ZR75, BT474, 415, and 435 were maintained in Dulbecco's modified eagle medium (DMEM), supplemented with 10% fetal bovine serum (FBS) (complete medium) in a 37° C. incubator with 5% CO2. STAT-3 (C-20) antibody, which recognizes phosphorylated and non-phosphorylated STAT-3, was purchased from Santa Cruz Biotechnologies and utilized as a positive control. Phospho-STAT-3 antibody was purchased from New England Biolabs. Rabbit anti-mouse antibody (secondary antibody for anti-STAT-3 and antiphospho-STAT-3) were purchased from Amersham International.
BT-20 cells were seeded at a density of 2×10^6 cells per 100 mm diameter dish and allowed to grow for 24 hours. Fresh medium was added to each plate 2 hours before treatment with the compound. The compound was dissolved in DMSO to make 5 mM stock solution and added to the medium (10 ml) to obtain a final concentration of 25 μM. DMSO alone was added to the control cells to study the effect of vehicle. […]
Equal amounts total protein ([…]) were run in each lane of SDS-PAGE gel (10%) and transferred to IMMOBILON-P (Millipore, USA). […] The antibody was detected using the ECL Western blotting analysis kit (Amersham International) following the manufacturer's instructions.

O=S(=O)(/C=C/c1ccc(F)cc1)Cc1ccc(Cl)cc1 [FRI-20, E-4-fluorostyryl 4-chlorobenzyl sulfone]
BT20 cells killed (BT20 cells): more than 95% | phospho-STAT-3 staining after treatment (phospho-STAT-3; 48 hours at 37° C., phospho-STAT-3 antibody Western blot (FIG. 9)): complete loss of phospho-STAT-3 | STAT-3 staining (STAT-3 expression) after treatment (phospho-STAT-3; 48 hours, STAT-3 antibody Western blot (FIG. 9)): stained positive for STAT-3
